In PMC6684654 (Nature Communications, 2019):

How the values were obtained:
NDM-1 = NDM-1 (Klebsiella pneumoniae, UniProt C7C422); conditions: cited from earlier work
Source text: NDM-1 inhibitors, which antagonize multiple subtypes of metallo-β-lactamases and protect β-lactam antibiotics from being hydrolyzed, have been widely studied for synergistic application with β-lactam antibiotics to restore their bactericidal effects[15],[25],[26]. The most common mechanism of metallo-β-lactamase inhibitors is metal ion binding.

[1] = tested on: NDM-1 in E. coli XJ141026 supernatant; assay: Imipenem hydrolysis by culture supernatant; type: biochemical
Procedure: (§1) NDM-1 level in the filtered supernatant was measured using a specific ELISA kit (Shanghai Enzyme-linked Biotechnology Co., Ltd., China) and western blot analysis. Imipenem hydrolysis in the filtered supernatant at 6 h was monitored using a Biotek powerwave HT microplate spectrophotometer at 30 °C by determining the changes in absorbance at 300 nm, with a final substrate concentration of 100 μM.

[2] = tested on: NDM-1 in E. coli XJ141026 cell precipitates; assay: Imipenem hydrolysis by cell precipitates; type: biochemical; conditions: 100 μM imipenem (50 μL of 200 μM), 30 °C; treated 6 h
Procedure: The cell pellet was washed and resuspended in 20 mM Tris-HCl (pH = 7.4) to evaluate imipenem hydrolysis in bacterial cell precipitates. The concentrations were equalized by adjusting the absorbance values to OD600 = 0.3 in the same buffer. After 50 μL of the diluted bacterial cell suspension was transferred to a 96-well plate, 50 μL of 200 μM imipenem was added to measure the hydrolytic activity of NDM-1 and 50 μL of 20 mM Tris-HCl (pH = 7.4) was added as blank. The assays were monitored at 300 nm by using a Biotek powerwave HT microplate spectrophotometer at 30 °C. Data were corrected by subtracting the absorbance values obtained from the blanks.

NDM-1 E. coli XJ141047 = assay: MIC, broth microdilution; type: cell-based; conditions: MHB, 5 × 10^5 CFU/mL, 16 h, 37 °C
Source text: (§2) MIC values were identified through microdilution in sterilized 96-well polypropylene microtiter plates according to the broth microdilution guideline of the Clinical and Laboratory Standards Institute[30]. The test medium was Mueller–Hinton broth (MHB), and the strain concentrations were adjusted to 5 × 10^5 CFU/mL.

NDM-1 E. coli XJ141015 = assay: MIC, broth microdilution; type: cell-based; conditions: MHB, 5 × 10^5 CFU/mL, 16 h, 37 °C
Source text: as §2

NDM-1 E. coli XJ141026 = assay: MIC, broth microdilution; type: cell-based; conditions: MHB, 5 × 10^5 CFU/mL, 16 h, 37 °C
Source text: as §2

[3] = tested on: NDM-1 K. pneumoniae XJ155019; assay: MIC, broth microdilution; type: cell-based; conditions: MHB, 5 × 10^5 CFU/mL, 16 h, 37 °C
Source text: as §2

[4] = tested on: NDM-1 K. pneumoniae XJ155020; assay: MIC, broth microdilution; type: cell-based; conditions: MHB, 5 × 10^5 CFU/mL, 16 h, 37 °C
Source text: as §2

apo-NDM-1 = apo-NDM-1 (Klebsiella pneumoniae, UniProt C7C422); type: binding; conditions: 50 mM HEPES pH 7.4, 0.05% Tween-20, RED-tris-NTA label, triplicate
Procedure: Briefly, apo-NDM-1 was derived from the purified NDM-1 obtained above by the two rounds of dialysis against 100 volumes of 10 mM HEPES, 200 mM NaCl, and 20 mM EDTA at pH = 7.4 over a 12 h period under stirring. EDTA was removed from the resulting apoenzyme solution by three dialysis steps against 200 volumes of 10 mM HEPES, 1 M NaCl, pH = 7.4, Chelex 100 and finally three dialysis steps against 200 volumes of 50 mM HEPES, 200 mM NaCl, pH = 7.4, and Chelex 100. All buffer solutions used to prepare the apoenzymes were treated by stirring with Chelex 100 (Bio-Rad). Zinc content in the apoprotein samples was checked using ICP-MS, and apo-NDM-1 contains less than 0.2 molar equivalents of zinc ion.
Apo-NDM-1 carrying a polyhistidine-tag (His-tag) was labeled with the RED-tris-NTA second-generation dye for 30 min at room temperature in the dark according to the manufacturer’s instructions (Monolith His-tag Labeling Kit RED-tris-NTA 2nd generation, Nanotemper Technologies GmbH). […] Then, 100 nM labeled NDM-1 protein was added to the serial dilution of the compound in a 1:1 volume ratio. After incubation for 30 min at room temperature, the samples were examined with Monolith NT.115 in Premium Capillaries (MO-K025) at medium MST power and 5% LED/excitation power. Kd values were determined using the Monolith Affinity Analysis Kd fit from triplicate experiments.

[5] = tested on: NDM-1 in E. coli XJ141026; assay: NDM-1 levels in supernatants and cell precipitates (western blot); type: cell-based; conditions: 0.8, 1.6, 3.2 μM; 6 h
Procedure: as §1
Soluble total protein concentration was determined and normalized with the Pierce BCA Protein Assay Kit (Thermo Fisher Scientific, Waltham, MA, USA). NDM-1 levels in the cells were measured by SDS-PAGE followed by western blot analysis. The primary antibody against NDM-1 was obtained from Detai Bio-Tech Co., Ltd. by immunizing New Zealand white rabbits with purified NDM-1 protein and further detected by horseradish peroxidase-conjugated anti-rabbit secondary antibody (Santa Cruz Biotechnology Inc., USA). Anti-GroEL antibody (Abcam, ab82592) was used to verify protein loading transferred to the membranes. To clearly normalize the levels of NDM-1, we investigated the two proteins on the same membrane. […] Protein band intensities were quantified from polyvinylidene difluoride membranes with ImageJ software.

[6] = tested on: NDM-1 in E. coli XJ141026 culture supernatant; assay: NDM-1 release to culture supernatant (ELISA); type: cell-based; conditions: 0.8, 1.6, 3.2 μM; 6 or 12 h
Procedure: as §1

NDM-1, sequence (C7C422 20-270, looked up, natural form): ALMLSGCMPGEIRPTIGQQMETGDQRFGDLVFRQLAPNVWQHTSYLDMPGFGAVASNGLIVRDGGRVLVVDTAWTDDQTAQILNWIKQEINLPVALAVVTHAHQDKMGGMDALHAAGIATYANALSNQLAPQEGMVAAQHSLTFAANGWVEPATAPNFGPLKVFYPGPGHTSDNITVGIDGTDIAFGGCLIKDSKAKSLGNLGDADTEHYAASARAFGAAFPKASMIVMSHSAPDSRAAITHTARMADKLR
apo-NDM-1, sequence (C7C422 20-270, looked up, natural form): as above

Compound	NDM-1 inhibition in words (NDM-1)	hydrolysis of imipenem by supernatant ([1]; 100 μM imipenem, 30 °C, treated 6 h)	effect on NDM-1 activity ([1]; Discussion)	hydrolysis rate of precipitates [2]	MIC (NDM-1 E. coli XJ141047) [µM]	MIC (NDM-1 E. coli XJ141015) [µM]	MIC (NDM-1 E. coli XJ141026) [µM]	MIC [3] [µM]	MIC [4] [µM]	Kd (apo-NDM-1) [µM]	NDM-1 level in cell precipitates [5]	NDM-1 release into solution [6]
N[C@H](CN[C@H](CN[C@@H](CC(=O)O)C(=O)O)C(=O)O)C(=O)O [aspergillomarasmine A]	inhibits the NDM-1 protease activity by chelating zinc ions from the active site											
Colistin		strong hydrolytic activity to imipenem	almost no effect on NDM-1 activity	consistently decreased with increasing thanatin or colistin concentration	1.7	1.7	0.85	6.8	6.8	61.7 ± 4.92	decreased	causing the release of NDM-1 into the solution in a time- and concentration-dependent manner
